Source: US20240287614A1, “RECIPROCAL MICRORNA-MRNA PAIRINGS AS BIOMARKERS AND THERAPEUTIC TARGETS IN CANCER” (UNIVERSITY OF MARYLAND, EASTERN SHORE, priority 2023, published 2024)

What was measured:
MTOR = experiment: RT-qPCR of MTOR expression after miRNA mimic transfection; assay type: cell-based, human; details: African American and European American prostate cancer cells; vs nonsense/scrambled (NS) miRNA control
Procedure: […] RC77 T/E, a primary prostate cancer cell line derived from a patient, was kindly provided by Dr. Johng Rhim at Center for Prostate Disease Research (CPDR) in Rockville, MD. LNCaP and PC-3 were served as prostate cancer cell line models, and RC77 T/E and MDA PCa 2b were served as prostate cancer cell models in the study. The cells were cultured in specific cell culture media, LNCaP was cultured in RPMI with 10% fetal bovine serum (FBS), PC-3 was cultured in DMEM with 10% FBS, MDA PCa 2b were cultured in BRFF-HPC1 with 20% FBS and RC77 T/E was cultured in Keratinocyte SFM with Human Recombinant Epidermal Growth Factor (EGF 1-53) and Bovine Pituitary Extract (BPE). Cells were maintained at 37° C. in a 5% CO2 incubator. LNCaP, PC-3 and MDA PCa 2b cells were seeded at density 3×10^4 cells/well in 6-well plates. RC77 T/E cells were seeded at density 5×10^4 cells/well in 6-well plates. […]
For the measurement of gene expression level, total RNA was isolated using miRNeasy Mini Kit (50) (Qiagen) from the prostate cancer cells used in the study. Quantification of total RNA samples were done using NanoVue Plus spectrophotometer (GE Healthcare). […] Reverse transcription was performed using iScript Reverse Transcription Supermix kit (Bio-Rad) to generate cDNA then followed by performing quantitative PCR (qPCR) assays using SsoAdvanced Universal SYBR Green supermix kit (Bio-Rad). […]

[1] = test system: prostate cancer (LNCaP and PC-3) and prostate cancer (RC77 T/E and MDA PCa 2b) cell lines; experiment: Caspase 3/7 activity-based apoptosis assay, prostate cancer cell lines; design: species or system human
Procedure: […] RC77 T/E, a primary prostate cancer cell line derived from a patient, was kindly provided by Dr. Johng Rhim at Center for Prostate Disease Research (CPDR) in Rockville, MD. LNCaP and PC-3 were served as prostate cancer cell line models, and RC77 T/E and MDA PCa 2b were served as prostate cancer cell models in the study. The cells were cultured in specific cell culture media, LNCaP was cultured in RPMI with 10% fetal bovine serum (FBS), PC-3 was cultured in DMEM with 10% FBS, MDA PCa 2b were cultured in BRFF-HPC1 with 20% FBS and RC77 T/E was cultured in Keratinocyte SFM with Human Recombinant Epidermal Growth Factor (EGF 1-53) and Bovine Pituitary Extract (BPE). Cells were maintained at 37° C. in a 5% CO2 incubator. LNCaP, PC-3 and MDA PCa 2b cells were seeded at density 3×10^4 cells/well in 6-well plates. RC77 T/E cells were seeded at density 5×10^4 cells/well in 6-well plates. The cells were allowed to grow for 24 h and then were either transfected with miR-34a-5p mimic, miR-99b-5p mimic, or miR-96-5p antagomir using DharmaFECT4 transfection reagent (Dharmacon), according to the manufacturer's protocol. After 24 h, the cells were replaced with fresh media then incubated for 24 h. miR-34a-5p mimic, miR-99b-5p mimic, miR-96-5p antagomir, and nonsense miRNA mimic and antagomir controls were purchased from Ambion. Nonsense/scrambled miRNA mimic and antagomir were used as negative controls.
For the measurement of apoptosis initiation by transfection of miRNA mimic or antagomir in prostate cancer cells, the transfected cells 5000 cells/well were seeded onto 96-well cell culture plates (Corning) and then incubated overnight. The miRNA mimic/antagomir transfected cells were then treated with vehicle or […] of Docetaxel. 24 h after the vehicle or drug treatment, the apoptosis assays were performed using Apo-ONE Caspase-3/7 Assay Kit (Promega Corporation) according to the protocol described by the manufacturer. 100 μL of homogeneous Caspase-3/7 reagent was added to the sample plate and incubated at room temperature for 1 h. Fluorescence was detected for measuring the apoptosis state (Caspase 3/7 activity) using Biotek Synergy HT Microplate Reader (BioTek) at wavelengths of 499 nm and 521 nm for excitation and emission, respectively.

For “miR-99b-5p mimic: miRNA mimic of miR-99b-5p (SEQ ID NO: 2, CACCCGUAGAACCGACCUUGCG), purchased from Ambion (listed as RNA, chemistry not given here; listed as Homo sapiens)”, the “MTOR expression (RT-qPCR)” value (MTOR) was “decreased”, the “docetaxel-induced cytotoxicity (caspase 3/7 activity), combination with docetaxel” value ([1]; LNCaP cells, 11 mM of Docetaxel, 24 h) was “further enhanced” and the “apoptosis (caspase 3/7 activity), transfection in the presence of docetaxel” value ([1]; RC77 T/E and MDA PCa 2b, 11 mM of Docetaxel, 24 h) was “significantly induced apoptosis”. For the same substance, the “cell apoptosis (caspase 3/7 activity) compared with NS transfected cells” value ([1]; absence of docetaxel (vehicle control), LNCaP, PC-3, RC77 T/E, MDA PCa 2b) was “overall generalized or significant increase”.
